The target of this test is T1, Androgen receptor (Homo sapiens, UniProt P10275).
T1 construct: Dmax: a maximum degradation degree of AR in VCaP cells; endogenous in cells; host or cells: VCaP cells
T1 sequence (P10275 1-920): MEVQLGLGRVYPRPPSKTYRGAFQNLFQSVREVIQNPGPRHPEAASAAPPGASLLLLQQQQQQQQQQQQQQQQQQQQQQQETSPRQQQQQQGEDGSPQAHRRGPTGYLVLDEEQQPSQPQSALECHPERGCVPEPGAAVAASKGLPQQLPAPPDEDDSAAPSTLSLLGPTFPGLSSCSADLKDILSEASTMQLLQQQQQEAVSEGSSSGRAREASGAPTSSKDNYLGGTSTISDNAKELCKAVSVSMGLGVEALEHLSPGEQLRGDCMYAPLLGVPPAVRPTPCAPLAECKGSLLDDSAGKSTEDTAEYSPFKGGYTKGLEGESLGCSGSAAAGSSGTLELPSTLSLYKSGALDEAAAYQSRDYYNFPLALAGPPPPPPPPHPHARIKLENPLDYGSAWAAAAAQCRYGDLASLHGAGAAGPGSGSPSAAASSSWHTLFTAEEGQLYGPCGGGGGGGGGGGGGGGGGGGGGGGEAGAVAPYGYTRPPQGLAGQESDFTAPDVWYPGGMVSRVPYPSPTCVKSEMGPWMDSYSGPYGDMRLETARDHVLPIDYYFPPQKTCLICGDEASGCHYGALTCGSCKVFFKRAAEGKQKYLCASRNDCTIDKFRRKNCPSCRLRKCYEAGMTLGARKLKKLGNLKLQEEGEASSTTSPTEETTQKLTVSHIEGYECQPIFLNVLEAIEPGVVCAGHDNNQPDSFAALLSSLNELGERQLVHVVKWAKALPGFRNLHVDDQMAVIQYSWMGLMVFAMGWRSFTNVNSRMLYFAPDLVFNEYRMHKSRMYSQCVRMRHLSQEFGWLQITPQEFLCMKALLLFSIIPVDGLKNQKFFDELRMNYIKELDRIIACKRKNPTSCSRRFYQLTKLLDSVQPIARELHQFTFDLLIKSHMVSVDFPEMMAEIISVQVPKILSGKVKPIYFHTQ
Description: Androgen receptor In-Cell-Western assay (AR degradation in VCaP cells). Conditions: 24 hours treatment; for DC50: concentration for half the maximum degradation degree of AR in VCaP cells; for Dmax: maximum degradation degree of AR in VCaP cells. Format: cell-based. As for the experimental part:
This assay evaluated compound performance in VCap cells. An intracellular androgen receptor was assayed by In-Cell-Western according to the assay procedure described below.
In a 96-well cell culture plate (Corning 3599) pretreated by poly-D-Lysin, Vcap cells were seeded to a Vcap cell assay medium [phenol red containing DMEM (Gibco Cat. No.: 11995065); fetal bovine serum FBS (Gibco Cat. No.: 10099141C)] at a volume of 100 μL/well and a cell density of 50,000 cells/well. Cells were cultured for at least two days. • 1. First, cells were treated with a compound. The compound was subjected to a gradient dilution by using DMSO and a cell culture medium, so that DMSO contained in the cell culture plate was diluted to 0.5%: a polypropylene plate was used according to the following protocol: • (1) (i) A 200× stock solution plate was prepared in DMSO; (ii) a 10 mM stock solution was diluted at 1:4 (10 μL stock solution+40 μL DMSO=2000 uM) with DMSO to enter row 2; (iii) a 1:4 (10 μL protac+40 μL DMSO) gradient dilution was performed from row 2 to row 9, row 1 was reserved for a 2000 uM reference compound and row 10 was reserved for DMSO. (iv) There were 8 concentrations (the final concentrations on the 200× plate was 2000 uM, 400 uM, 80 uM, etc.) in total. (2) (i) A 3× stock solution was prepared in the medium; (ii) 3 μL of the 200× stock solution was transferred to 197 μL of the medium (by a 12-channel pipette, from row 1 to row 10), i.e. a 3× stock solution plate. (iii) Uniform mixing was performed for the stock solution plate. (3) (i) The medium of Vcap cells was replaced with a fresh medium, with the medium volume of 100 μL. (ii) The uniformly-mixed 3× stock solution was transferred to the cell culture plate (by the 12-channel pipette, 50 μL of the stock solution was transferred from row 1 to row 10). (iii) The cells were cultured for 24 hours. • 2. The expression level of the intracellular androgen receptor after compound treatment was detected, and assay was performed according to the following method. • (1) (i) An equal volume of 8% paraformaldehyde was added to the cell culture plate for cell fixation. A fixative solution in the cell plate was discarded, and the cell plate was washed three times with PBS. (ii) A Triton solution was prepared (the stock solution was diluted at 1:1000). The solution in the cell plate was discarded, and a volume of 200 μL of a Triton diluent was added to each well. (iii) A 2× blocking solution was prepared (a 10× blocking stock solution was diluted at 1:4). The solution in the cell plate was discarded, and a volume of 100 μL of the 2× blocking solution was added to each well. (iv) A primary antibody solution (Androgen receptor Rabbit mAb, Cell Signaling Technology Cat. No.: 5153; 1:1000 dilution) was prepared. The solution in the cell plate was discarded, a volume of 100 μL of a primary antibody diluent was added to each well, and incubation was performed at 4 degrees overnight. (v) The primary antibody solution was discarded, and the cell plate was washed with 1× Wash buffer (Wash buffer in the present application means a washing buffer solution). (vi) A secondary antibody solution (Goat anti Rabbit IgG (H+L) Secondary Antibody, HRP, Thermo Cat. No.: 31460; 1:5000 dilution) was prepared, and a volume of 100 μL of a secondary antibody diluent was added to each well for incubation. (vii) The secondary antibody solution in the cell plate was discarded, and the cell plate was washed with 1× Wash buffer. (viii) A TMB chromogenic solution (BD Cat. No.: 550534) was prepared, and a volume of 100 μL of the chromogenic solution was added to each well. (ix) A volume of 50 μL of a stop solution (BD Cat. No.: 550534) was added to each well. (x) Absorption values at OD 450 nm and 570 nm were read by EnVision. (2) (i) Normalized analysis was performed for the number of cells in each well. The solution in the cell plate was discarded, and the cell plate was washed three times with wash buffer. […]

This passage reports DC50 and Dmax results from patent US12234223B2, “Phthalazinone compound, and preparation method therefor and medical use thereof” (SHANGHAI JEMINCARE PHARMACEUTICALS CO., LTD, priority 2020, dated 2025).

As usually defined, the DC50 is the midpoint of the concentration-degradation curve. As a reminder, the Dmax is the greatest extent of degradation seen. With `CC1(C)[C@H](NC(=O)c2ccc(N3CCC(CN4CCN(c5ccc6c(=O)n([C@H]7CCC(=O)NC7=O)ncc6c5)CC4)CC3)cc2)C(C)(C)[C@H]1Oc1ccc(C#N)c(Cl)c1` [Compound 28A], the DC50 was 2.7 nM and the Dmax was determined as 126%.

`CC1(C)[C@H](NC(=O)c2ccc(N3CCC(CN4CCN(c5ccc6c(=O)n(C7CCC(=O)NC7=O)nc(F)c6c5)CC4)CC3)cc2)C(C)(C)[C@H]1Oc1ccc(C#N)c(Cl)c1` (stereo partly drawn) [Compound 29]: half-maximal degradation (DC50) was put at 8.9 nM and the Dmax amounted to 169%.

In the case of `CC1(C)[C@H](NC(=O)c2ccc(N3CCC(CN4CCN(c5ccc6c(=O)n(C7CCC(=O)NC7=O)ncc6c5)CC4)CC3)cc2)C(C)(C)[C@H]1Oc1ccc(C#N)c(Cl)c1` (stereo partly drawn) [Compound 1], the DC50 came to 10 nM and the Dmax came out at 97%.
